Data from patent US5260257A, “Thermal transfer sheet” (Dai Nippon Printing Co., Ltd., priority 1991, dated 1993).

Test system: not listed separately
Experiment: light fastness test (xenon fadeometer, percentage fading)
Type: physicochemical
Conditions: Table A2, dyes of Table A1, 50° C., 70 kJ/m^2
Procedure: (§1) The light fastness test was conducted as follows.
(§2) Irradiation was conducted by means of a xenon fadeometer Ci35A (manufactured by Atlas) under conditions of a black panel temperature of 50° C. and an integrating irradiation energy of 70 kJ/m^2.
(§3) The percentage fading was determined from a density change around an initial density of 1.0 according to the following equation.
(§4) Percentage fading=(1-I/I0)×100 (%)
(§5) I=optical density after irradiation; and
(§6) I0 =optical density before irradiation.
(§7) .largecircle.: less than 20% in the percentage fading
X : 20% or more in the percentage fading
With `CCN(CC)c1ccc(N=C2C=C(NC(=O)C3CC3)C(=O)C(Cl)=C2C)c(C)c1` [compound 1] the Light fastness was “.largecircle. (less than 20% in the percentage fading)”. For `CCN(CCO)c1ccc(N=C2C=C(NC(=O)C3CC3)C(=O)C(Cl)=C2C)c(C)c1` [compound 2], the Light fastness was “.largecircle. (less than 20% in the percentage fading)”. For `CCN(CC)c1ccc(N=C2C=C(NC(=O)C3CC3)C(=O)C=C2NC(C)=O)c(C)c1` [compound 3], the Light fastness was “.largecircle. (less than 20% in the percentage fading)”. For `CCOc1cc(N(CC)CC)ccc1N=C1C=CC(=O)C(NC(=O)C2CC2)=C1` [compound 4], the Light fastness was “.largecircle. (less than 20% in the percentage fading)”. For `CCOc1cc(N(CC)Cc2ccccc2)ccc1N=C1C=C(NC(=O)C2CC2)C(=O)C=C1NC(C)=O` [compound 5], the Light fastness was “.largecircle. (less than 20% in the percentage fading)”. With `CCN(CCNS(C)(=O)=O)c1ccc(N=C2C=C(NC(=O)C3CC3)C(=O)C=C2NC(C)=O)c(C)c1` [compound 6] the Light fastness was “.largecircle. (less than 20% in the percentage fading)”. With `CCN(CCC#N)c1ccc(N=C2C=C(NC(=O)C3CC3)C(=O)C=C2NS(C)(=O)=O)c(NC(C)=O)c1` [compound 7] the Light fastness was “.largecircle. (less than 20% in the percentage fading)”. With `CCN(c1ccccc1)c1ccc(N=C2C=C(NC(=O)C3CC3)C(=O)C(Cl)=C2C)c(Cl)c1` [compound 8] the Light fastness was “.largecircle. (less than 20% in the percentage fading)”. With `CCN(CC)c1ccc(N=C2C=CC(=O)C(NC(=O)C3CC3)=C2)c(NC(C)=O)c1` [compound 9] the Light fastness was “.largecircle. (less than 20% in the percentage fading)”. With `CCN(CCO)c1ccc(N=C2C=C(NC(=O)C3CC3)C(=O)C=C2NC(C)=O)c(NS(C)(=O)=O)c1` [compound 10] the Light fastness was “.largecircle. (less than 20% in the percentage fading)”. In the case of `CCN(CC)c1ccc(N=C2C=C(NC(=O)C3CC3)C(=O)C(Cl)=C2C)cc1` [compound 11], the Light fastness is reported as “.largecircle. (less than 20% in the percentage fading)”. With `CCCCC1CC(C(=O)NC2=CC(=Nc3ccc(N(CC)CC)cc3C)C(C)=C(Cl)C2=O)C1` (stereo not shown) [compound 12] the Light fastness was “.largecircle. (less than 20% in the percentage fading)”. In the case of `CCN(Cc1ccccc1)c1ccc(N=C2C=C(NC(=O)C3CCCC3)C(=O)C=C2NC(C)=O)c(C)c1` [compound 13], the Light fastness is reported as “.largecircle. (less than 20% in the percentage fading)”. In the case of `CCN(CC)c1ccc(N=C2C=C(NC(=O)C3CCCC3)C(=O)C(Cl)=C2C)c(NC(C)=O)c1` [compound 14], the Light fastness is reported as “.largecircle. (less than 20% in the percentage fading)”. In the case of `CCN(CC)c1ccc(N=C2C=C(NC(=O)C3CCCC3)C(=O)C(Cl)=C2C)c(C)c1` [compound 15], the Light fastness is reported as “.largecircle. (less than 20% in the percentage fading)”. For `CCN(CC)c1ccc(N=C2C=C(NC(=O)C3CCCC3)C(=O)C(Cl)=C2C)cc1` [compound 17], the Light fastness was “.largecircle. (less than 20% in the percentage fading)”. In the case of `CCN(CCCl)c1ccc(N=C2C=C(NC(=O)C3CCCC3)C(=O)C=C2NC(C)=O)c(NC(=O)NC)c1` [compound 18], the Light fastness is reported as “.largecircle. (less than 20% in the percentage fading)”. For `CCN(CC)c1ccc(N=C2C=C(NC(=O)c3ccsc3)C(=O)C(Cl)=C2C)c(C)c1` [compound 19], the Light fastness was “.largecircle. (less than 20% in the percentage fading)”. In the case of `CCN(CC)c1ccc(N=C2C=C(NC(=O)c3ccsc3)C(=O)C(Cl)=C2C)c(NC(C)=O)c1` [compound 20], the Light fastness is reported as “.largecircle. (less than 20% in the percentage fading)”. For `CCN(CC)c1ccc(N=C2C=C(NC(=O)c3ccsc3)C(=O)C=C2NC(C)=O)c(C)c1` [compound 21], the Light fastness was “.largecircle. (less than 20% in the percentage fading)”. For `CCN(CCOC)c1ccc(N=C2C=C(NC(=O)c3ccsc3)C(=O)C(Cl)=C2C)c(NC(C)=O)c1` [compound 22], the Light fastness was “.largecircle. (less than 20% in the percentage fading)”.

Same assay, conditions: Table B2, dyes of Table B1, 50° C., 70 kJ/m^2
In the case of `CCOc1cc(N(CC)CC)ccc1N=C1C=C(NC(=O)C2CC=CCC2)C(=O)C(Cl)=C1C` (stereo not shown) [Dye No. 22 in Table B1], the Light fastness is reported as “.largecircle. (less than 20% in the percentage fading)”. For `CCN(CC)c1ccc(N=C2C=CC(=O)C(NC(=O)C3CC=CCC3)=C2)c(C)c1` (stereo not shown) [compound 23], the Light fastness was “.largecircle. (less than 20% in the percentage fading)”. In the case of `CCN(CCNS(C)(=O)=O)c1ccc(N=C2C=C(NC(=O)C3CC=CCC3)C(=O)C(Cl)=C2C)c(C)c1` (stereo not shown) [compound 24], the Light fastness is reported as “.largecircle. (less than 20% in the percentage fading)”.

Same assay, conditions: Table C2, dyes of Table C1, 50° C., 70 kJ/m^2
For `CCN(CC)c1ccc(N=C2C=C(NC(=O)C3CC4C=CC3O4)C(=O)C(Cl)=C2C)c(C)c1` (stereo not shown) [Dye No. 21 in Table C1], the Light fastness was “.largecircle. (less than 20% in the percentage fading)”. With `CCN(CC)c1ccc(N=C2C=C(NC(=O)C3CC4C=CC3S4)C(=O)C(Cl)=C2C)c(C)c1` (stereo not shown) [Dye No. 22 in Table C1] the Light fastness was “.largecircle. (less than 20% in the percentage fading)”. With `CCN(CC)c1ccc(N=C2C=C(NC(=O)C3CC4C=CC3S4)C(=O)C=C2NC(C)=O)c(C)c1` (stereo not shown) [Dye No. 23 in Table C1] the Light fastness was “.largecircle. (less than 20% in the percentage fading)”. With `CCN(CC)c1ccc(N=C2C=C(NC(=O)C3CC4C=CC3N4C)C(=O)C(Cl)=C2C)c(C)c1` (stereo not shown) [Dye No. 24 in Table C1] the Light fastness was “.largecircle. (less than 20% in the percentage fading)”.

Test system: not listed separately
Experiment: ink stability test (precipitation of the dye in the ink observed with the naked eye)
Type: physicochemical
Conditions: Table D1; room temperature (20°±3° C.), 48 hr
Procedure: The following ink composition for the formation of a dye supporting layer was prepared and heated to 70° C. to completely dissolve the ink.
For `CCN(CC)c1ccc(N=C2C=C(NC(C)=O)C(=O)C(Cl)=C2C)c(C)c1` [Comp. Ex. D1], the stability of ink was “large amount of crystal”. For `CCN(CC)c1ccc(N=C2C=C(NC(=O)C3CCCCC3)C(=O)C(Cl)=C2C)c(C)c1` [Comp. Ex. D2], the stability of ink was “small amount of crystal”.

Test system: not listed separately
Experiment: light fastness test (Example D1 series)
Type: physicochemical
Conditions: Table D1; xenon, 50° C., 70 kJ/m^2
Procedure: as §1, §2, §3, §4, §5, §6, §7
Δ: 20% or more in the percentage fading
With `CCN(CC)c1ccc(N=C2C=C(NC(C)=O)C(=O)C(Cl)=C2C)c(C)c1` [Comp. Ex. D1] the Light fastness was “.largecircle. (less than 20% in the percentage fading)”. For `CCN(CC)c1ccc(N=C2C=C(NC(=O)C3CCCCC3)C(=O)C(Cl)=C2C)c(C)c1` [Comp. Ex. D2], the Light fastness was “.largecircle. (less than 20% in the percentage fading)”.

Test system: S. typhimurium TA100, TA98 and TA1538
Experiment: Ames test (mutagenic test)
Type: cell-based
Conditions: positive if reversion colonies twice or more vs control
Procedure: Ames test was conducted as a mutagenic test.
Strains used were S. typhimurium TA100, TA98 and TA1538.
When the increase in the reversion colony was twice or more as compared with that in the case of the control, the mutagenicity was judged as positive, while when the increase in the reversion colony was less than twice as compared with that in the case of the control, the mutagenicity was judged as negative.
For `CCN(CC)c1ccc(N=C2C=C(NC(C)=O)C(=O)C(Cl)=C2C)c(C)c1` [Comp. Ex. D1], the mutagenicity was “positive”. For `CCN(CC)c1ccc(N=C2C=C(NC(=O)C3CCCCC3)C(=O)C(Cl)=C2C)c(C)c1` [Comp. Ex. D2], the mutagenicity was “negative”.
